We go through seven compounds from US9694072B2, “Methods for diagnosing and treating neuroendocrine cancer” (Trustees of Dartmouth College, priority 2005, dated 2017).

One series deals with DMS-53 cells. Briefly: Cell growth/viability assay (Alamar Blue). Format: cell-based, human. The conditions noted are these: for effect on cell viability (in words): DMS-53, 48 hours, concentration range used.
Series [1] relates to NCI-H82 variant SCLC cells. Briefly: Cell growth/viability assay (Alamar Blue). It is filed as cell-based, human. The conditions noted are these: for IC50: read-out: IC50, cell viability; for Cell viability reduced to: NCI-H82, 24, 48, and 72 hours incubation.
Experimental: (§3) Cultures of NCI-H345, NCI-H146, DMS-53 cells (classical cell lines), and NCI-H82 cells (variant cell line) were treated with 0.05% trypsin, washed in phosphate buffered saline (PBS)/glycine and plated onto 96-well plates at 10^4 cells/well in medium for 24 hours to provide time for rectifying possible damage to membrane proteins from the trypsinization. […] Fluorescent readings were taken at periods representing 24, 48, and 72 hours of incubation with antagonist using a Synergy HT Multi-Detection Microplate Reader and excitation/emission wavelengths of 530 nm and 590 nm. Cell viability was evaluated as % vehicle control at the corresponding incubation time.
Series [2] has as its system MCF-7 breast cancer cells. Briefly: Alamar Blue growth/proliferation study. Format: cell-based, human. The conditions noted are these: for effect on cell growth/proliferation (in words): MCF-7, in the presence of glycine over 24 hours.
The test system of series [3] is SKBr3 breast cancer cells. Briefly: Alamar Blue growth/proliferation study. It is filed as cell-based, human. The conditions noted are these: for effect on cell growth/proliferation (in words): SKBr3, in the presence of glycine over 24 hours. The protocol:
(§1) Results represent triplicate studies performed with Alamar Blue on LAN2 neuroblastoma, MCF-7 breast cancer, and SKBr3 breast cancer cells examining the growth influence of 1 mM glutamate in the presence of glycine over 24 hours.
(§2) Results represent triplicate studies performed with Alamar Blue on LAN2 neuroblastoma, MCF-7 breast cancer, and SKBr3 breast cancer cells examining the growth influence of 100 mM Mg^++ in the presence of glycine over 24 hours.

In another series the test system is NCI-H146 cells. Briefly: Cell growth/viability assay (Alamar Blue). It is filed as cell-based, human.
Series [4] has as its system NCI-H345 classical SCLC cells. Kind of series: Cell growth/viability assay (Alamar Blue). The protocol: Cultures of NCI-H345, NCI-H146, DMS-53 cells (classical cell lines), and NCI-H82 cells (variant cell line) were treated with 0.05% trypsin, washed in phosphate buffered saline (PBS)/glycine and plated onto 96-well plates at 10^4 cells/well in medium for 24 hours to provide time for rectifying possible damage to membrane proteins from the trypsinization. The wells were washed and incubated with PBS/glycine containing albumin (1.25 mg/mL) in the presence or absence of different concentrations (25 μM-800 μM) of either the NMDAR 1 antagonists, Memantine or MK-801; or the NMDAR2B antagonists Ifenprodil and Ro 25-6981 (binders to the polyamine site), or the NMDAR2B antagonists L-701,252 and L-701,324 (binders to the glycine site), or vehicle; and Alamar Blue (1:10 dilution following manufacturer's recommendation). Fluorescent readings were taken at periods representing 24, 48, and 72 hours of incubation with antagonist using a Synergy HT Multi-Detection Microplate Reader and excitation/emission wavelengths of 530 nm and 590 nm. Cell viability was evaluated as % vehicle control at the corresponding incubation time.
This peptide domain is represented in that portion of the mRNA message sequenced by RT-PCR. For studies on cell proliferation, the IgGs of this antiserum were first isolated by precipitation with 50% saturated ammonium sulfate, and antibodies purified from these immunoglobulins by affinity chromatography using a column containing the peptide component of the above antigen coupled to SEPHAROSE (Friedmann, et al. (1994) supra; Keegan, et al. (2002) supra).

Series [5] deals with human LA-N-2 neuroblastoma cells. The conditions noted are these: cited from earlier work.
In series [6] the test system is human LA-N2 neuroblastoma cells. The conditions noted are these: in the presence of glycine; cited from earlier work.
Series [7] concerns NCI H82 variant small-cell cancer cell xenografts. Kind of series: NCI H82 xenografts treated with ifenprodil. Format: in vivo, nu/nu mice. The protocol: Male nu/nu mice were injected subcutaneously with NCI H82 variant small-cell cancer cells (˜10^7 cells/mouse) representing recurrent disease, and tumors became obvious after 2-3 weeks, and commenced growing rapidly. Animals were divided into two groups.
In another set of experiments, NCI H82 tumors were pretreated with cyclophosphamide for three days (single dose of 75 mg/kg body weight) before a single daily dose of i.p. ifenprodil (2.5 mg/kg) commenced.

The next series concerns LAN2 neuroblastoma cells. Briefly: Alamar Blue growth study. Format: cell-based, human. Conditions: LAN2, in the presence of glycine over 24 hours. The protocol: as §1, §2
The mark [8] stands for this setting: Homo sapiens, NCI-H82, 48 and 72 hours of incubation, Alamar Blue (figure legend).
[9] abbreviates: Homo sapiens, NCI-H82, at 48 hours.
The mark [10] stands for this setting: Homo sapiens, NCI-H345, 48 h, read-out: IC50, cell viability.
[11] abbreviates: Homo sapiens, NCI-H345, read-out: IC50, cell viability.
The mark [12] stands for this setting: 2.5 mg/kg once daily intraperitoneally.

The structures appear in SMILES notation. Where two headings read alike, the source gives them in different places. Bounds are passed on as bounds.

Experimental for DMS-53 cells: as §3
Experimental for NCI-H146 cells: as §3

For `CC12CC3CC(C)(C1)CC(N)(C3)C2` [memantine], the IC50 was 800 µM in the series with DMS-53 cells (Homo sapiens, DMS-53, at 48 hours, read-out: IC50, cell viability); 80 to 100 µM in series [1] (setting [8]); 80 to 130 µM in series [1] (setting [9]); 400 µM in the series with NCI-H146 cells (Homo sapiens, NCI-H146, at 48 hours, read-out: IC50, cell viability); 80 to 130 µM in series [4] (setting [10]); 80 to 100 µM in series [4] (setting [11]). For the same compound, the “Cell viability reduced to” value in [1] and in series [4] was “about 10 % of control” each time. Also, the “Proliferation of MCF-7 Cells Percent Fluorescence Compared to Control” value was 92.86 ± 6.08% in [2] (100 μM, 24 Hours); 89.98 ± 5.30% in series [2] (100 μM, 48 Hours); 88.48 ± 4.02% in [2] (100 μM, 72 Hours); 73.51 ± 5.64% in series [2] (200 μM, 24 Hours); 49.78 ± 6.85% in series [2] (200 μM, 48 Hours); 46.62 ± 7.04% in series [2] (200 μM, 72 Hours). The “Proliferation of MCF-7 Cells Percent Fluorescence Compared to Control” value was 48.81 ± 5.18% in series [2] (300 μM, 24 Hours); 22.33 ± 5.21% in series [2] (300 μM, 48 Hours); 20.02 ± 4.97% in series [2] (300 μM, 72 Hours); 39.62 ± 5.21% in [2] (400 μM, 24 Hours); 15.79 ± 4.79% in series [2] (400 μM, 48 Hours); 14.38 ± 3.92% in series [2] (400 μM, 72 Hours). Moreover, the “Proliferation of MCF-7 Cells Percent Fluorescence Compared to Control” value in series [2] (500 μM, 24 Hours) is recorded as 38.40 ± 2.98%; in series [2] (500 μM, 48 Hours), 14.60 ± 3.21%; in series [2] (500 μM, 72 Hours), 13.40 ± 3.29%; in [2] (600 μM, 24 Hours), 39.22 ± 4.13%; in series [2] (600 μM, 48 Hours), 15.10 ± 7.28%; in series [2] (600 μM, 72 Hours), 13.66 ± 6.62%. Further, the “Proliferation of MCF-7 Cells Percent Fluorescence Compared to Control” value in series [2] (700 μM, 24 Hours) amounted to 32.80 ± 2.19%; in [2] (700 μM, 48 Hours), 12.51 ± 2.35%; in series [2] (700 μM, 72 Hours), 11.89 ± 2.62%; in series [2] (800 μM, 24 Hours), 32.82 ± 2.44%; in [2] (800 μM, 48 Hours) it was 12.34 ± 2.01%; in series [2] (800 μM, 72 Hours) it was 11.82 ± 2.25%. Besides, the “Proliferation of MCF-7 Cells Percent Fluorescence Compared to Control” value came to 32.23 ± 2.13% in [2] (900 μM, 24 Hours); 12.03 ± 2.15% in [2] (900 μM, 48 Hours); 11.57 ± 2.41% in series [2] (900 μM, 72 Hours). Further, in [2] (MCF-7, 0.3 mM, 48 and 72 hours), the “reduce proliferation by” value was “about 80%”. Also, the “effect on proliferation (in words)” value is reported as “decreased the proliferation” in series [2] (MCF-7, NMDAR1 antagonist treatment) and “decreased the proliferation” in [3] (SKBr3, NMDAR1 antagonist treatment).
`NC(=O)c1ccccc1C(=O)N[C@@H](CCC(=O)O)C(=O)O` [NPG, N-phthalamoyl-L-glutamic acid]: the Cell cytotoxicity increased in [5] (incubation at 0.1 mM) is reported as 28%; in series [5] (incubation at 1 mM), 46%. The “inward sodium current increased” value in series [6] was 1.5 ×.
For `CC(C(O)c1ccc(O)cc1)N1CCC(Cc2ccccc2)CC1` (centres unmarked) [Ro 25-6981], the “effect on cell viability (in words)” value is recorded as “no clear effects” with DMS-53 cells (listed as Ro 25-698) and “no clear effects” in the series on NCI-H146 cells (NCI-H146, 48 hours, concentration range used). Also, the concentration for half-maximal inhibition (IC50) in series [1] (NCI-H82, at 48 hours) is roughly 200 µM; in series [4] (read-out: IC50, cell viability, NCI-H345, at 48 hours), roughly 200 µM.
Take `CC(C(O)c1ccc(O)cc1)N1CCC(Cc2ccccc2)CC1` (centres unmarked) [Ifenprodil]: the “effect on cell viability (in words)” value with DMS-53 cells is “smaller decreases”. In addition, the half-maximal inhibitory concentration (IC50) was 150 to 200 µM in series [1] (setting [8]), roughly 150 µM in series [1] (setting [9]), roughly 150 µM in series [4] (setting [10]) and 150 to 200 µM in series [4] (setting [11]). Also, the “Cell viability reduced to” value in series [1] and in [4] was “about 10 % of control” each time. The “time tumors maintained sizes of less than their original size” value in series [7] (setting [12]) is listed as roughly 10 days. Besides, the “tumor size by 2 weeks of treatment” value in series [7] (setting [12]) is listed as less than 2 times their original size. Also, the “tumors first shrank to” value in [7] (setting [12]) is reported as ~80 % of their original size. Besides, in [7] (ifenprodil alone), the “tumor growth vs saline-treated control mice (in words)” value was “inhibits the growth”. In addition, the “body weight compared to saline-treated animals” value in series [7] (over 8 days of drug treatment) is given as “no change in body weight”.
In the case of `N[C@@H](CCC(=O)O)C(=O)O` [glutamate, L-glutamic acid], the entries for the “effect on cell growth/proliferation (in words)” value (in series [2]; in the series with LAN2 neuroblastoma cells; in series [3]) were “increased proliferation”, “decreased cell growth” and “increased proliferation”, respectively. Moreover, the Cell cytotoxicity increased in series [5] (incubation at 1 mM) is 27%; in series [5] (incubation at 10 mM), 37%. Also, the “inward sodium current increased” value in [6] was 1.5 ×.
Take `O=c1[nH]c2cc(Cl)ccc2c(O)c1-c1cccc(Oc2ccccc2)c1` [L-701,324]: the “increase in cell viability to” value in series [1] (NCI-H82, at 48 hours) is recorded as “approximately 120 % of control”; in series [4] (NCI-H345, at 48 hours), “approximately 140 % of control”.
In the case of `[Mg+2]` [magnesium], the “effect on cell growth/proliferation (in words)” value (in series [2]; with LAN2 neuroblastoma cells; in series [3]) was “significantly inhibited proliferation” each time.
